US9409893B2, “Heteroaryl derivatives and uses thereof” (Jacobus Pharmaceutical Company, Inc., priority 2012, dated 2016)
Structures can show the parent of a compound that is named as a salt. Where two headings read alike, the source gives them in different places.

What was measured:
P. falciparum strain D6 = assay: [3H]-hypoxanthine growth inhibition assay, P. falciparum D6; assay type: cell-based; conditions: Plasmodium falciparum
Protocol: (§1) The potential for antimalarial activity against Plasmodium falciparum was determined by measuring the incorporation of tritiated hypoxanthine into parasitized red blood cells.
(§2) Stock solutions of the test compounds and the reference drug chloroquine (CQ) (Sigma Chemicals C-6628, Lot #059H0919) were prepared in silanized glass vials with AquaSil™ (Pierce, USA) to minimize absorption of the compounds to glassware. All test compounds were dissolved in DMSO (Sigma Cat No. #D8418) to 1 mM concentration, whereas CQ was dissolved in 50% methanol at a concentration of 1.6 mg/ml (base). Stock solutions were stored at −20° C.
(§3) The P. falciparum laboratory adapted strains utilized in this project (Table 1) were in vitro cultured and routinely maintained in RPMI-1640-LPLF complete medium, which contained low concentrations of para-amino benzoic acid (0.0005 mg/L) and folic acid (0.01 mg/L).
(§4) The low concentration of folic acid in RPMI-1640-LPLF prevents inhibition of the compound if its activity targets the parasite's folate metabolic pathway. Parasites were cultured in human red blood cells (RBCs) in vitro at 37° C. in special gas mixture (5% O2, 5% CO2 and 90% N2) as described Trager and Jensen (1979 Science 193:673-675).
(§5) Base cultivation medium consisted of 10.4 g/L RPMI-1640-LPLF powder (Gibco BRL), 5.97 g/L HEPES buffer (MP Biomedicals, USA), 2.0 g/L D-glucose (BDH chemicals, Australia), 0.05 g/L hypoxanthine (Sigma, USA) and 40 mg/L gentamycin (Pfizer, Australia). The pH of the medium was adjusted to 6.9 and the solution was filtered using 0.2 μm pore size (AcroCap, Gelman Science, USA). Complete medium was prepared by adding sodium bicarbonate solution (final concentration, 0.21%) and drug-free heat-inactivated human plasma, pooled from various blood types, obtained from the Australian Red Cross Blood Service (Brisbane) (final concentration, 10%) to the base RPMI-1640-LPLF. For [^3H]-hypoxanthine inhibition growth assay, RPMI-1640-LPLF complete medium which lacked [^3H]-hypoxanthine ([^3H]-RPMI-1640-LPLF) was used to prevent uptake of hypoxanthine by parasites, as radioactive hypoxanthine uptake is measured as a surrogate marker of growth. All complete medium was used within three days of preparation. See DE (Para) SOP 002 for methodology.
(§6) Red blood cells (RBC) were required for P. falciparum parasites to proliferate in vitro. 0 (Rh+) type blood was obtained from the Australian Red Cross Blood Service. The RBC were washed twice in phosphate-buffered saline (PBS) and once in [^3H]-RPMI-1640-LPLF complete medium by centrifugation at 1,500×g for 5 min. Following the final wash, the haematocrit was measured as the percent of RBC to total culture volume. The haematocrit was adjusted to 50% by removing or adding [^3H]-RPMI-LPLF complete medium. See DE (Para) SOP 003 for methodology.
(§7) All P. falciparum strains were grown in RPMI-1640-LPLF complete medium at 4% haematocrit and 1% to 8% parasitaemia at 37° C. in sealed flasks in a gas mixture of 5% O2, 5% CO2 and 90% N2 (BOC Gases, Brisbane, Australia). For drug susceptibility assays cultures were routinely synchronized when the majority of parasites (>85%) were at early trophozoite (ring) stage. Synchronization involved removing the more mature erythrocytic parasite stages by lysis, resulting in the retention only of early trophozoite (ring) stages. Synchronization was performed by re-suspending the infected red blood cell (iRBC) pellet in 5 to 10 times its volume of 5% D-sorbitol (Bacto Laboratories Pty. Ltd., Australia) for 5 min (Lambros and Vanderberg, 1979 J Parasitol 65: 418-420). The mixture was centrifuged (1,500 rpm for 5 min) and the supernatant removed. The iRBC were washed twice using PBS buffer and once using [^3H]-RPMI-LPLF plain medium. Following synchronization, a new culture was prepared with an initial parasitaemia of 1% in RPMI-LPLF complete medium. See DE (Para) SOP 008 for methodology.

P. falciparum strain W2 = assay: [3H]-hypoxanthine growth inhibition assay, P. falciparum W2; assay type: cell-based; conditions: Plasmodium falciparum
Protocol: as §1, §2, §3, §4, §5, §6, §7

[1] = P. falciparum D6 (sensitive to chloroquine and pyrimethamine), [3H]-hypoxanthine incorporation, read-out: D6 IC50
[2] = P. falciparum W2 (resistant to chloroquine and pyrimethamine), [3H]-hypoxanthine incorporation, read-out: W2 IC50

| IC50 (P. falciparum strain D6; [1]) [nM] | IC50 (P. falciparum strain W2; [2]) [nM] | SMILES | IC50 (P. falciparum strain D6; D6, read-out: D6 IC50) [nM] | IC50 (P. falciparum strain W2; W2, read-out: W2 IC50) [nM] |
| --- | --- | --- | --- | --- |
| 45 | 25 | CC(C)(C)NCc1cc(C(C)(C)C)cc(-c2ccc(Cl)s2)c1O [Example 2, 4-(tert-Butyl)-2-((tert-butylamino)methyl)-6-(5-chlorothiophen-2-yl)phenol hydrochloride] |  |  |
|  |  | CC(C)(C)NCc1cc(C(C)(C)C)cc(-c2cnc3ccccc3c2)c1O [Example 3, 4-(tert-Butyl)-2-((tert-butylamino)methyl)-6-(quinolin-3-yl)phenol dihydrochloride] | 26 | 22 |
|  |  | CC(C)(C)NCc1cc(C(C)(C)C)cc(-c2cccc3ncccc23)c1O [Example 4, 4-(tert-Butyl)-2-((tert-butylamino)methyl)-6-(quinolin-5-yl)phenol dihydrochloride] | 144 | 200 |
|  |  | CC(C)(C)NCc1cc(C(C)(C)C)cc(-c2ccc3ncccc3c2)c1O [Example 5, 4-(tert-Butyl)-2-((tert-butylamino)methyl)-6-(quinolin-6-yl)phenol dihydrochloride] | 37 | 25 |
| 31 | 13 | CC(C)(C)NCc1cc(C(C)(C)C)cc(-c2cc3ccccc3o2)c1O [Example 6, 2-(Benzofuran-2-yl)-4-(tert-butyl)-6-((tert-butylamino)methyl)phenol hydrochloride] |  |  |
| 18 | 9 | CC(C)(C)NCc1cc(C(C)(C)C)cc(-c2cc3ccccc3s2)c1O [Example 7, 2-(Benzo[b]thiophen-2-yl)-4-(tert-butyl)-6-((tert-butylamino)methyl)phenol hydrochloride] |  |  |
|  |  | CC(C)(C)NCc1cc(C(C)(C)C)cc(-c2ccnc3ccccc23)c1O [Example 8, 4-(tert-Butyl)-2-((tert-butylamino)methyl)-6-(quinolin-4-yl)phenol dihydrochloride] | 109 | 94 |
| 94 | 48 | Cn1nc(C(F)(F)F)cc1-c1cc(C(C)(C)C)cc(CNC(C)(C)C)c1O [Example 9, 4-(tert-Butyl)-2-((tert-butylamino)methyl)-6-(1-methyl-3-(trifluoromethyl)-1H-pyrazol-5-yl)phenol hydrochloride] |  |  |
|  |  | CC(C)Oc1ccc(-c2cc(C(C)(C)C)cc(CNC(C)(C)C)c2O)cn1 [Example 10, 4-(tert-Butyl)-2-((tert-butylamino)methyl)-6-(6-isopropoxypyridin-3-yl)phenol dihydrochloride] | 25 | 11 |
|  |  | CC(C)(C)NCc1cc(C(C)(C)C)cc(-c2ccc(N)nc2)c1O [Example 11, 2-(6-Aminopyridin-3-yl)-4-(tert-butyl)-6-((tert-butylamino)methyl)phenol dihydrochloride] | 350 | 398 |
|  |  | COc1ccc(-c2cc(C(C)(C)C)cc(CNC(C)(C)C)c2O)cn1 [Example 12, 4-(tert-Butyl)-2-((tert-butylamino)methyl)-6-(6-methoxypyridin-3-yl)phenol dihydrochloride] | 23 | 14 |
|  |  | CC(C)(C)NCc1cc(C(C)(C)C)cc(-c2cncc3ccccc23)c1O [Example 13, 4-(tert-Butyl)-2-((tert-butylamino)methyl)-6-(isoquinolin-4-yl)phenol dihydrochloride] | 73 | 85 |
|  |  | CN(C)c1ccc(-c2cc(C(C)(C)C)cc(CNC(C)(C)C)c2O)cn1 [Example 14, 4-(tert-Butyl)-2-((tert-butylamino)methyl)-6-(6-(dimethylamino)pyridin-3-yl)phenol dihydrochloride] | 23 | 14 |
|  |  | CC(C)(C)NCc1cc(C(C)(C)C)cc(-c2ccc(N3CCCC3)nc2)c1O [Example 15, 4-(tert-Butyl)-2-((tert-butylamino)methyl)-6-(6-(pyrrolidin-1-yl)pyridin-3-yl)phenol dihydrochloride] | 24 | 16 |
|  |  | COc1cc(-c2cc(C(C)(C)C)cc(CNC(C)(C)C)c2O)ccn1 [Example 16, 4-(tert-Butyl)-2-((tert-butylamino)methyl)-6-(2-methoxypyridin-4-yl)phenol dihydrochloride] | 26 | 11 |
